For data set [1] the following is noted: rabbit, in vivo.
For data set [2], the system named is 5PAM (murine squamous cell carcinoma). Briefly: Intracellular PpIX synthesis versus cell proliferation rate (Table 4). In kind it is cell-based. The note with it: Dt 14 h.
Data set [3] relates to HSF (human skin fibroblast). The data set is described as above. The data set is classed as cell-based. The note with it: Dt 27 h.
Data set [4] deals with NBT-2 (rat bladder carcinoma). Described as above. The data set is classed as cell-based. The conditions noted are these: Dt 13.5 h.
In data set [5] the test system is EJ (human bladder carcinoma). Described as above. In kind it is cell-based. The note with it: Dt 23 h.
On the set-up of data set [6]: species or system New Zealand White rabbits. The conditions noted are these: rabbit, in vivo. Here is the method: (§1) Thirty New Zealand White rabbits weighing 2-4 kg were sensitized over a six week period with two cutaneous injections of ovalbumin suspended in Fruends adjuvant. At six weeks, the knee joints of all animals were challenged with an intra-articular injection of ovalbumin solution. Seven days following joint challenge, 25 animals received systemic intravenous injections with Photofrin® (2.0 mg/kg). Animals were killed at 6, 12, 24, 48 and 72 hours post Photofrin® injection and tissue samples were obtained of skin, quadriceps muscle, knee synovium, articular cartilage, meniscus, bone and tendon. Tissue weight was measured (Mettler AE 163 balance) and tissue samples were frozen at -90 degrees C. (Revco Ultra Low Freezer) until dye extraction.
The biodistribution of Photophrin® within synovium, articular cartilage and meniscus was also studied with fluorescence microscopy. At each of the harvest intervals of 6, 12, 24, 48 and 72 hours post injection, tissue specimens were obtained from experimental and control animals. Samples were placed in O.C.T. medium and frozen at -90 C. Unstained frozen sections at 10 microns were prepared using a cryostat (Microm, Inc., Heidelberg, Germany) and analyzed with a fluorescence microscope (Axiophot, Zeiss, Oberkochen, Germany) under epiluminescence of a mercury lamp (HBO 200 W/2, Zeiss). […]

Details of data set [7]: species or system New Zealand White rabbits. The conditions noted are these: rabbit, in vivo. On the procedure: as §1
For extraction, tissue samples were homogenized (Homogenizer, Model PT 10/35, Brinkman Instruments, Co., Westbury, N.Y.) in 8 cc 0.1N NaOh solution. Each sample was centrifuged at 17,000 RPM (Sorvall RC-5B, refrigerated superspeed centrifuge, DuPont instruments) for 20 minutes. The fluorescence of 2 cc of supernatant was measured with a spectrofluorometer (Model Flourolog 2, Spex Industries, Inc., Edison, N.J.) and compared to that of standard solutions of Photofrin® with known concentration, and Photofrin® mixed with supernatant of extracted control quadriceps muscle. The excitation wavelength 366 nm and fluorescence spectrum between 600 and 700 nm was analyzed. Untreated animals will served as controls and for background correction.
The source holds these as a separate data set.

For data set [8] the following is noted: rabbit, in vivo. The source holds these as a separate data set.
Experimental: Photochemotherapeutic synovectomy was performed on an antigen induced arthritis (AIA) model in 12 New Zealand white rabbits in a double control study. After a six week sensitization period, the joints of all animals were challenged bilaterally with an injection of albumin suspended in Freund's adjuvant. After five days, eight animals received systemic injections of 2 mg/kg of Photophrin® II. At 24 hours, four animals underwent bilateral arthrotomy procedures. The right knee joint of each was exposed to 100J/cm2 of 630 nm laser light over a 20 minute period. The left knees, not receiving the laser light application, served as controls. At 48 hours post HPD injection, an additional 4 animals underwent the identical operative procedures. Post-operatively, all animals were returned to their cages and allowed free movement. […] At one month post treatment, animals were sacrificed, knee joint synovium was then harvested, fixed, and stained with H and E for pathological evaluation.

As to `NCC(=O)CCC(=O)O` [ALA, δ-aminolevulinic acid], the “ALA observed in the synovium” value in data set [1] is “large amounts”.

Take `C=CC1=C(C)c2cc3[nH]c(cc4nc(cc5[nH]c(cc1n2)c(C)c5CCC(=O)O)C(CCC(=O)O)=C4C)c(C)c3C=C` [PpIX, Protoporphyrin IX]: the “Intracellular PpIX (4 h)” value was found to be 160 a moles/cell in data set [2], 40 a moles/cell in data set [3], 160 a moles/cell in data set [4] and 100 a moles/cell in data set [5].

For the compound Photofrin®, in data set [6], the “uptake by fluorescence microscopy in synovium” value was “significant uptake at 12, 24, 48 and 72 hours”. In addition, in data set [7], the “selectivity of uptake in inflamed synovium” value was “selectively taken up in synovium at 24 and 48 hours post systemic injection”; the “uptake in articular cartilage, meniscus, muscle and tendon” value was “insignificant”. In data set [7] (iv, 2 mg/kg), the “Photofrin® concentration in tissue (inflamed synovium)” value is recorded as “greater than 4 micrograms/gram of tissue” and the “time of maximum uptake in inflamed synovium” value was 48 h. Further, in data set [8], the “side effects of synovium destruction” value is listed as “without significant side effects”.
